Data on two molecules can be found in ChEMBL document CHEMBL3232833, “5,10-seco-neo-clerodanes and neo-clerodanes from Salvia microphylla” (J Nat Prod, 2014).

Assay [1] in a line: Cytotoxicity against human HCT15 cells after 48 hrs by sulforhodamine B method. It is filed as functional, cell-based. The settings on record: HCT-15, 48 h. In general terms: In SRB staining, fixed cells bind dye roughly in proportion to their protein.
Assay [2] concerns Mus musculus. Put plainly: Antiinflammatory activity in CD1 mouse assessed as reduction of TPA-induced ear edema per ear after 4 hrs. In kind it is functional, organism-based.
The nature of assay [3]: Cytotoxicity against human SKLU1 cells after 48 hrs by sulforhodamine B method. In kind it is functional, cell-based. The settings on record: SK-LU-1, 48 h.
Assay [4] deals with K562. Put plainly: Cytotoxicity against human K562 cells after 48 hrs by sulforhodamine B method. In kind it is functional, cell-based. The settings on record: K562, 48 h.
For assay [5], the system named is U-251. Put plainly: Cytotoxicity against human U251 cells after 48 hrs by sulforhodamine B method. It is filed as functional, cell-based. The settings on record: U-251, 48 h.
Assay [6] relates to MCF7. Put plainly: Cytotoxicity against human MCF7 cells after 48 hrs by sulforhodamine B method. The settings on record: MCF7, 48 h. It is filed as functional, cell-based.
Assay [7] relates to PC-3. The assay is described as follows: Cytotoxicity against human PC3 cells after 48 hrs by sulforhodamine B method. The settings on record: PC-3, 48 h. In kind it is functional, cell-based.

Turning to `C[C@]12C[C@H](c3ccoc3)OC(=O)[C@H]1CC[C@@]13COC(=O)C1=CC=C[C@@]32O`, the IC50 is above 10 µM in assay [1]; above 1 µmol in assay [2]; above 10 µM in assay [3]; above 10 µM in assay [4]; above 10 µM in assay [5]; above 10 µM in assay [6]. Also, the IC50 in assay [7] was above 10 µM.
In the case of `C[C@]12C[C@H](c3ccoc3)OC(=O)[C@H]1CCC1=C(/C=C\CC2=O)C(=O)OC1`, the IC50 is above 10 µM in assay [1]; above 1 µmol in assay [2]; above 10 µM in assay [3]; above 10 µM in assay [4]; above 10 µM in assay [5]; above 10 µM in assay [6]. In assay [7], this molecule showed an IC50 above 10 µM.
